Measurements taken from ChEMBL document CHEMBL1144438, “Dipeptidyl peptidase IV inhibitors derived from beta-aminoacylpiperidines bearing a fused thiazole, oxazole, isoxazole, or pyrazole” (Bioorg Med Chem Lett, 2005).
pIC50: −log10 of the molar value.

How the values were obtained:
Dipeptidyl peptidase 9 = Dipeptidyl peptidase 9 (Homo sapiens, UniProt Q86TI2); assay: Inhibitory concentration against human dipeptidylpeptidase 9
Dipeptidyl peptidase 8 = Dipeptidyl peptidase 8 (Homo sapiens, UniProt Q6V1X1); assay: Inhibitory concentration against human dipeptidylpeptidase 8
Chain of Dipeptidyl peptidase 8 (Q6V1X1 whole entry): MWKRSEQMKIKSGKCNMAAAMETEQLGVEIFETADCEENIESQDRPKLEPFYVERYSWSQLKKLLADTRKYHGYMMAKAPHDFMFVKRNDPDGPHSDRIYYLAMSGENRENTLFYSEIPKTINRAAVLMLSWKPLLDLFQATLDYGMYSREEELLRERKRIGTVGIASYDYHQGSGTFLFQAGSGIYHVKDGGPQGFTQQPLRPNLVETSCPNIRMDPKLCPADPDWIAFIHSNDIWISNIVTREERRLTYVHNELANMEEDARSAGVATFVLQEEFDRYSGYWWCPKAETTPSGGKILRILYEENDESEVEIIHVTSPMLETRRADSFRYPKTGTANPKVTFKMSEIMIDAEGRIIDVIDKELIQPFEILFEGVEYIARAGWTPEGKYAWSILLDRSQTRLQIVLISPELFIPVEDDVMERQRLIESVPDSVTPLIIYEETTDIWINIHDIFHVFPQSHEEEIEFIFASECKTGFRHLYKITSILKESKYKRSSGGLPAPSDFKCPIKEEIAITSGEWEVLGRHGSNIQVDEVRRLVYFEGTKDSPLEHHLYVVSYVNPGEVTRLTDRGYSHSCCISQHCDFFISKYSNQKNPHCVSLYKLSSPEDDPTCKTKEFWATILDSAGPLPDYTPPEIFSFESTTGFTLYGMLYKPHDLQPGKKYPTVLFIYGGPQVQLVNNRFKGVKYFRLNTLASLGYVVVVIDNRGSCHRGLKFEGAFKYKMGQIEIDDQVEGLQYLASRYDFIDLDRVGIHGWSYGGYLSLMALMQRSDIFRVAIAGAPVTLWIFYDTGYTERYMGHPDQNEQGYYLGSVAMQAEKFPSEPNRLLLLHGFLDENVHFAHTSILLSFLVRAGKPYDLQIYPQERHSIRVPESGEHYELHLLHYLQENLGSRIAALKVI

Dipeptidyl peptidase 2 = Dipeptidyl peptidase 2 (Homo sapiens, UniProt Q9UHL4); assay: Inhibitory concentration against human dipeptidylpeptidase VII (QPP)
[1] = Plasma clearance of compound in rats dosed at 1 mg/kg i.v.; assay type: ADME, organism-based; set-up: dose 1 mg/kg, route intravenous; settings: rat, iv
[2] = Half-life of compound in rats dosed at 1 mg/kg i.v.; assay type: ADME, organism-based; set-up: dose 1 mg/kg, route intravenous; settings: rat, in vivo, iv
[3] = Oral bioavailability of compound in rats dosed at 2 mg/kg p.o.; assay type: ADME, organism-based; settings: rat, in vivo

Chain of Dipeptidyl peptidase 9 (Q86TI2 whole entry): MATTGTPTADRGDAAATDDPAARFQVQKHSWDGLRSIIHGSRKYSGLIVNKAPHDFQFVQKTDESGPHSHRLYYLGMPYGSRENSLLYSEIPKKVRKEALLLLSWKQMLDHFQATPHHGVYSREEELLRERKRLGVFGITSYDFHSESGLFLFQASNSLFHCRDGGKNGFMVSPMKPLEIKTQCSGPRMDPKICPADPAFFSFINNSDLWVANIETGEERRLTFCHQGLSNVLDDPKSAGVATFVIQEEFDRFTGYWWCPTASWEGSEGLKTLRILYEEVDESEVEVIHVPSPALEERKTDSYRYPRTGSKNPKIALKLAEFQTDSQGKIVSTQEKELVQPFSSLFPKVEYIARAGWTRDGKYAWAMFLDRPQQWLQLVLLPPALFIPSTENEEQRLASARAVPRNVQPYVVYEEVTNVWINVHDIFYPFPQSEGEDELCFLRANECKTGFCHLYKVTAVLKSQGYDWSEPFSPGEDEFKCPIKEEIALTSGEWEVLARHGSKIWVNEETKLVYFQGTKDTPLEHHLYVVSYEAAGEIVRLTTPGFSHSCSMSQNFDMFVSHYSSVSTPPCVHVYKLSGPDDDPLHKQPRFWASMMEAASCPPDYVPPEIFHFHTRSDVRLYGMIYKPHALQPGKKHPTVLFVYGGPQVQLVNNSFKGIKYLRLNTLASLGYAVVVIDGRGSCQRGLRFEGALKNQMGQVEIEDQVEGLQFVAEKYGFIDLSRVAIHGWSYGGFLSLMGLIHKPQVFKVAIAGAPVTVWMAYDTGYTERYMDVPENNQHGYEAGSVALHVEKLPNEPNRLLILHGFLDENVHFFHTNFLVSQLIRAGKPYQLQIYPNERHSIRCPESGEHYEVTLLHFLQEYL

## Cn1nc(-c2ccc(F)cc2)c2c1CCN(C(=O)C[C@H](N)Cc1cc(F)ccc1F)C2
Dipeptidyl peptidase 9
  pIC50: < 4.00

## N[C@@H](CC(=O)N1CCc2noc(C(F)(F)F)c2C1)Cc1cc(F)ccc1F
Dipeptidyl peptidase 9
  pIC50: < 4.00
Dipeptidyl peptidase 8
  pIC50: < 4.00

## Cn1nc(C(F)(F)C(F)(F)F)c2c1CCN(C(=O)C[C@H](N)Cc1cc(F)ccc1F)C2
Dipeptidyl peptidase 9
  pIC50: < 4.00

## N[C@@H](CC(=O)N1CCc2n[nH]c(C(F)(F)C(F)(F)F)c2C1)Cc1cc(F)ccc1F (stereo in doubt; form 2)
Dipeptidyl peptidase 9
  pIC50: < 4.00

## N[C@@H](CC(=O)N1CCc2c(noc2C(F)(F)F)C1)Cc1cc(F)ccc1F
Dipeptidyl peptidase 2
  pIC50: < 4.00

## Cn1nc2c(c1C(F)(F)F)CCN(C(=O)C[C@H](N)Cc1cc(F)ccc1F)C2
Dipeptidyl peptidase 9
  pIC50: < 4.00

## Cn1nc2c(c1-c1ccc(F)cc1)CN(C(=O)C[C@H](N)Cc1cc(F)ccc1F)CC2
Dipeptidyl peptidase 9
  pIC50: < 4.00

## Cn1nc(C(F)(F)F)c2c1CCN(C(=O)C[C@H](N)Cc1cc(F)ccc1F)C2
Dipeptidyl peptidase 9
  pIC50: < 4.00

## N[C@@H](CC(=O)N1CCc2n[nH]c(C(F)(F)C(F)(F)F)c2C1)Cc1cc(F)ccc1F (stereo in doubt; form 1)
Dipeptidyl peptidase 9
  pIC50: < 4.00

## N[C@@H](CC(=O)N1CCc2sc(C(F)(F)F)nc2C1)Cc1cc(F)ccc1F
Dipeptidyl peptidase 9
  pIC50: < 4.00
[1]
  clearance: 250 mL/min/kg
[2]
  half-life: 2 h
[3]
  bioavailability: 16%

## N[C@@H](CC(=O)N1CCc2oc(C3CC3)nc2C1)Cc1cc(F)ccc1F
Dipeptidyl peptidase 2
  pIC50: < 4.00
Dipeptidyl peptidase 9
  pIC50: < 4.00

## CS(=O)(=O)c1ccc(-c2nc3c(s2)CCN(C(=O)C[C@H](N)Cc2cc(F)ccc2F)C3)cc1
[1]
  clearance: 60 mL/min/kg
[2]
  half-life: 1.5 h
[3]
  bioavailability: 20%

## N[C@@H](CC(=O)N1CCc2nn(CC(F)(F)F)c(C(F)(F)F)c2C1)Cc1cc(F)ccc1F
Dipeptidyl peptidase 9
  pIC50: < 4.00
Dipeptidyl peptidase 8
  pIC50: < 4.00

## N[C@@H](CC(=O)N1CCCc2n[nH]c(C(F)(F)F)c21)Cc1cc(F)ccc1F
Dipeptidyl peptidase 9
  pIC50: < 4.00
Dipeptidyl peptidase 8
  pIC50: < 4.00

## Cn1nc2c(c1C(F)(F)F)CN(C(=O)C[C@H](N)Cc1cc(F)ccc1F)CC2
Dipeptidyl peptidase 9
  pIC50: < 4.00
Dipeptidyl peptidase 8
  pIC50: < 4.00

## N[C@@H](CC(=O)N1CCc2sc(-c3ccc(F)cc3)nc2C1)Cc1cc(F)ccc1F
[1]
  clearance: 91 mL/min/kg
[2]
  half-life: 3.3 h
[3]
  bioavailability: 55%

## N[C@@H](CC(=O)N1CCc2c(c(C(F)(F)F)nn2CC(F)(F)F)C1)Cc1cc(F)ccc1F
Dipeptidyl peptidase 9
  pIC50: < 4.00

## Cn1nc2c(c1C(F)(F)C(F)(F)F)CN(C(=O)C[C@H](N)Cc1cc(F)ccc1F)CC2
Dipeptidyl peptidase 9
  pIC50: < 4.00
Dipeptidyl peptidase 8
  pIC50: < 4.00
